Earlier results, collected in patent US20250275556A1, “N[…] METHOD FOR PRODUCING THE SAME” (Kalium Agri, Inc., priority 2024, published 2025).

Conditions: magnesium supplement in cattle, in optimal situations

[O]=[Mg] [magnesium oxide]
digestible: 19%
